Data: PMC5560554, “Targeting of CDK9 with indirubin 3’-monoxime safely and durably reduces HIV viremia in chronically infected humanized mice” (PLoS ONE, 2017)
pEC50: −log10 of the molar value. Entries after “also recorded” stand apart in the source; their conditions may differ.

Legend:
[1] = Toxicity study in BALB/c mice (daily i.p. 14 days; blood counts and chemistry profiles); type: in vivo; details: daily i.p. doses of up to 20 mg/kg for 14 days
Description: IM (Cayman Chemicals, Ann Arbor, MI) was dissolved in 10% Cremophor EL (Sigma, St. Louis, MO). Adult, female BALB/c mice were treated with IM (2.5, 5, and 20 mg/kg; n = 5 per dose) or its vehicle (10% Cremophor EL; n = 5) daily, via intraperitoneal (i.p.) injections, for 14 days. We used mice from a single sex to reduce potential variability of the data, although gender is not expected to have an effect on the toxicity of IM. On day 14, animals were anesthesized with ketamine-xylazine (100-150mg/kg Ketamine + 10-16mg/kg Xylazine) and, after confirming (via toe pinch) that a deep surgical plane of anesthesia had been reached, blood was collected by cardiac puncture. Blood samples were submitted for measurements of blood chemistry profiles and of blood counts.
There is currently limited information on IM toxicity. […] To better evaluate the toxicity of IM we conducted toxicity studies following standard protocols. We used BALB/c mice because, unlike NSG mice, are fully immunocompetent and thus more suitable for assessing hematological toxicities. BALB/c mice were treated with IM (2.5, 5 and 20 mg/kg; n = 5 per dose) or its vehicle (n = 5) daily, via i.p. injections, for 14 days. […] Mice were monitored daily for morbidity and mortality. […] The other 19 mice remained healthy and had no evidence of morbidity. […] Creatinine levels below reference ranges may be due to sample hemolysis. […]

HIV-1 NL4-3 = assay: Drug susceptibility assay in PHA-activated PBMCs (HIV p24 ELISA day 7); type: cell-based; details: PBMCs, NL4-3, day 7
Description: The ARTs tenofovir, raltegravir and indinavir were obtained from the NIH AIDS Research and Reference Reagent Program (Gaithersburg, MD). Drug susceptibility assays were performed in PBMCs as previously. Briefly, donor PBMCs were activated by culture with phytohemagglutinin (PHA) for 3 days. Activated PBMCs were infected with HIV (M.O.I of 0.001) for 2 hours in the absence of IM or ARTs, washed to remove non-adsorbed virus, and plated in culture medium containing IL-2 and various dilutions of IM and ARTs alone and in combination. On day 3, fresh medium with fresh drug was added to the cultures. On day 7, cultures were evaluated for HIV production by measuring HIV p24 levels in the culture supernatants by ELISA (PerkinElmer Life Sciences, Inc., Boston, Massachusetts). Data were normalized to p24 levels in drug untreated controls (100%) and EC50 values determined by fitting the data to sigmoidal dose-response (variable slope) curves using GraphPad Prism 5.0 software.
A potential use of CDK9 inhibitor for the treatment of HIV will probably be in combination with ARTs from other classes. We thus evaluated the antiviral interaction between IM and ARTs from the NRTI, integrase and protease inhibitor classes in PBMCs infectivity assays in vitro. We used the virus strain HIV-1 NL4-3 to ensure a robust viral replication in the assays. Although HIV-1 NL4-3 differs from HIV-1 BaL in usage of coreceptor for cell entry, it is expected to have similar sensitivity to the tested ARTs. […] These enhancements of ART potencies by IM are consistent with targeting of different steps of the HIV cycle by IM and the tested ARTs.

HIV [2] = test system: HIV; set-up: method as in PMID 16284457; details: macrophages; read-out: EC50 for inhibition of HIV in vitro; cited from earlier work
HIV [3] = test system: HIV; set-up: method as in PMID 24401082; details: cited from earlier work
CDK9 = test system: CDK9; set-up: method as in PMID 16284457; details: cited from earlier work
macrophages = details: cited from earlier work
[4] = in vivo; cited from earlier work

SMILES: O=C1Nc2ccccc2/C1=C1/Nc2ccccc2/C1=N\O [IM, Indirubin 3’-monoxime]
- hematologic, renal or liver toxicity [1]: not associated with hematologic, renal or liver toxicity; also recorded: no hematologic, liver or renal toxicity
- P24 (HIV-1 NL4-3; IM alone (IND 0 nM), IND experiment, untreated control 55.00): 4.00 ng/mL
- P24 (HIV-1 NL4-3; IM alone (RAL 0 nM), RAL experiment, untreated control 24.0): 8.00 ng/mL
- P24 (HIV-1 NL4-3; IM alone (TDF 0 µM), TDF experiment, untreated control 50.0): 10.0 ng/mL
- pEC50 (HIV [2]): 6.30
- inhibition of plasma HIV RNA levels (HIV [3]; 40 mg/kg, previous study): 2 log 10 units
- general toxicity (HIV [3]; NSG mice, daily doses between 2.5 and 40 mg/kg): absence of general toxicity
- inhibition of CDK9 relative to other CDKs (CDK9): inhibits CDK9 more potently than other CDKs
- cytotoxicity (macrophages): not cytotoxic
- penetration in brain [4]: favorable penetration in brain
